This is an account of results in patent US4619938A, “Fatty acid derivatives of aminoalkyl nicotinic acid esters and platelet aggregation inhibitors” (Terumo Kabushiki Kaisha, priority 1984, dated 1986).

Like-named read-outs stand apart in the source and are kept apart here.

Experiment [1] has as its system platelet aggregation caused by arachidonic acid (platelet-rich plasma). The experiment can be described thus: Platelet aggregation-inhibitory action, arachidonic acid (100 μM) induced, Born's turbidometric method. Conditions: Oryctolagus cuniculus, 0.05 h, read-out: 50% inhibitory concentration, Arachidonic acid. It is filed as cell-based, rabbit. As to the method:
(§1) Blood was drawn from the carotid artery of a rabbit using a syringe containing 3.8% solution of sodium citrate in an amount of […] per volume of the solution. The blood was centrifuged to obtain platelet-rich plasma (PRP: 5×10^5 platelets/μl).
(§2) In a cuvette was placed 250 μl of the PRP, which is warmed in a constant-temperature bath at 37° C. for 2 min. To the warmed cuvette was added 20 μl of a solution of an alkanolamine derivative to be tested (a […] ethanol solution which had been diluted with Trisbuffered isotonic saline solution). The mixture was then incubated for 3 min., followed by addition of a aggregation inducer, an arachidonic acid solution or a collagen solution. Measurement of the platelet aggregation was made by Born's turbidometric method (e.g., described in J. Physiol., Vol. 168, P. 178, 1968). The 50% inhibitory concentration for the platelet aggregation caused by arachidonic acid (100 μM) or collagen (20 μg/ml) is given in Table 1 with reference to Aspirin for comparison.
(§3) The 50% inhibitory concentration as shown in the table means the concentration of an alkanolamine derivative required for inhibiting aggregation ability of the platelets to 50% when the aggregation ability of the platelets in the absence of the alkanolamine derivative of the invention is taken as 100%.

Experiment [2] relates to platelet aggregation caused by collagen (platelet-rich plasma). The experiment can be described thus: Platelet aggregation-inhibitory action, collagen (20 μg/ml) induced, Born's turbidometric method. Conditions: Oryctolagus cuniculus, 0.05 h, read-out: 50% inhibitory concentration, Collagen. It is filed as cell-based, rabbit. As to the method:
as §1, §2, §3

Setting [3] is: rabbit PRP, 37° C., 3 min. incubation, arachidonic acid 100 μM.
[4] abbreviates: rabbit PRP, 37° C., 3 min. incubation, collagen 20 μg/ml.

Turning to `CC(=O)Oc1ccccc1C(=O)O` [Aspirin, reference compound], the results for the IC50 in experiment [1] and in experiment [2] were 14 µM and 13.6 µM, respectively.
With `CC/C=C\C/C=C\C/C=C\C/C=C\C/C=C\CCCC(=O)NCCO` [Example 1, N-5,8,11,14,17-eicosapentaenoyl-2-aminoethanol], the IC50 in experiment [1] (setting [3]) amounted to 22 µM; in experiment [2] (setting [4]) it was 98 µM.
Taken in the same sequence, the figures for `CC/C=C\C/C=C\C/C=C\C/C=C\C/C=C\CCCC(=O)OCCNC(=O)c1cccnc1` [Example 2, N-nicotinoyl-2-aminoethyl 5,8,11,14,17-eicosapentaenoate] were 11 µM and 93 µM.
Taken in the same sequence, the figures for `CC/C=C\C/C=C\C/C=C\CCCCCCCC(=O)OCCNC(=O)c1cccnc1` [Example 3, N-nicotinoyl-2-aminoethyl 9,12,15-octadecatrienoate] were 49 µM and 140 µM.
Taken in the same sequence, the figures for `CCCCC/C=C\C/C=C\C/C=C\CCCCC(=O)OCCNC(=O)c1cccnc1` [Example 4, N-nicotinoyl-2-aminoethyl 6,9,12-octadecatrienoate] were 36 µM and 190 µM.
In the case of `CC/C=C\C/C=C\C/C=C\C/C=C\C/C=C\CCCC(=O)NCCOC(=O)c1cccnc1` [Example 5, N-5,8,11,14,17-eicosapentaenoyl-2-aminoethyl nicotinate], the IC50 in experiment [1] (setting [3]) is 8.8 µM; in experiment [2] (setting [4]), 90 µM.
Taken in the same sequence, the figures for `CC/C=C\C/C=C\C/C=C\C/C=C\C/C=C\CCCC(=O)N(CC)CCO` [Example 6, N-ethyl-N-5,8,11,14,17-eicosapentaenoyl-2-aminoethanol] were 3.57 µM and 273 µM.
Taken in the same sequence, the figures for `CC/C=C\C/C=C\C/C=C\C/C=C\C/C=C\CCCC(=O)N(CCO)CCCC` [Example 7, N-butyl-N-5,8,11,14,17-eicosapentaenoyl-2-aminoethanol] were 3.55 µM and 187 µM.
The like results for `CC/C=C\C/C=C\C/C=C\C/C=C\C/C=C\CCCC(=O)N(C)CCOC(=O)c1cccnc1` [Example 8, N-methyl-N-5,8,11, 14,17-eicosapentaenoyl-2-aminoethylnicotinate] were, in that order, 6.62 µM and 111 µM.
In the case of `CC/C=C\C/C=C\C/C=C\CCCCCCCC(=O)N(C)CCOC(=O)c1cccnc1` [Example 9, N-methyl-N-9,12,15-octadecatrienoyl-2-aminoethylnicotinate], the IC50 worked out at 8.24 µM in experiment [1] (setting [3]) and 273 µM in experiment [2] (setting [4]).
Taken in the same sequence, the figures for `CC/C=C\C/C=C\C/C=C\C/C=C\C/C=C\CCCC(=O)N(CC)CCOC(=O)c1cccnc1` [Example 10, N-ethyl-N-5,8,11,14,17-eicosapentaenoyl-2-aminoethylnicotinate] were 4.99 µM and 91.7 µM.
The like results for `CC/C=C\C/C=C\C/C=C\C/C=C\C/C=C\CCCC(=O)N(CCCC)CCOC(=O)c1cccnc1` [Example 11, N-butyl-N-5,8,11,14,17-eicosapentaenoyl-2-aminoethylnicotinate] were, in that order, 6.03 µM and 197 µM.
As for `CC/C=C\C/C=C\C/C=C\C/C=C\C/C=C\CCCC(=O)NCCCOC(=O)c1cccnc1` [Example 12, N-5,8,11,14,17-eicosapentaenoyl-3-aminopropylnicotinate], the IC50 in experiment [1] (setting [3]) was found to be 3.44 µM; in experiment [2] (setting [4]), 55.3 µM.
Taken in the same sequence, the figures for `CC/C=C\C/C=C\C/C=C\C/C=C\C/C=C\CCCC(=O)OCCN(CC)C(=O)c1cccnc1` [Example 13, (N-ethyl-N-nicotinoyl-2-aminoethyl)-5,8,11,14,17-eicosapentaenoate] were 255 µM and 401 µM.
Taken in the same sequence, the figures for `CC/C=C\C/C=C\C/C=C\C/C=C\C/C=C\CCCC(=O)N(C)CCOCc1cccnc1` [Example 14, [N-methyl-N-(5,8,11,14,17-eicosapentaenoyl)-2-aminoethyl]-β-picolylether] were 5.68 µM and 50.1 µM.
The like results for `CC/C=C\C/C=C\C/C=C\C/C=C\C/C=C\CCCC(=O)N(CCCC)CCOCc1cccnc1` [Example 15] were, in that order, 7.07 µM and 123 µM.
Turning to `CC/C=C\C/C=C\C/C=C\C/C=C\C/C=C\CCCC(=O)NCCOCc1cccnc1` [Example 16, (N-5,8,11,14,17-eicosapentaenoyl)-2-aminoethyl β-picolyl ether], the IC50 in experiment [1] (setting [3]) amounted to 5.68 µM; in experiment [2] (setting [4]) it was 50.1 µM.
As for `CC/C=C\C/C=C\C/C=C\CCCCCCCC(=O)NCCCOCc1cccnc1` [Example 17, (N-9,12,15-octadecatrienoyl)-3-aminopropyl β-picolylether], the IC50 in experiment [1] (setting [3]) came to 7.07 µM; in experiment [2] (setting [4]), 123 µM.
